The results in this text go back to BindingDB's records for PubMed 29751237 (University of Kwazulu-Natal, 2018).

The test has as its target Maltase-glucoamylase (Homo sapiens, UniProt O43451). As to the kind of experiment: Inhibition of alpha-glucosidase (unknown origin) using p-nitrophenyl-alpha-D-glucopyranoside as substrate incubated for 30 mins by spectrophotometric analysis.

Chain of Maltase-glucoamylase (O43451 whole entry): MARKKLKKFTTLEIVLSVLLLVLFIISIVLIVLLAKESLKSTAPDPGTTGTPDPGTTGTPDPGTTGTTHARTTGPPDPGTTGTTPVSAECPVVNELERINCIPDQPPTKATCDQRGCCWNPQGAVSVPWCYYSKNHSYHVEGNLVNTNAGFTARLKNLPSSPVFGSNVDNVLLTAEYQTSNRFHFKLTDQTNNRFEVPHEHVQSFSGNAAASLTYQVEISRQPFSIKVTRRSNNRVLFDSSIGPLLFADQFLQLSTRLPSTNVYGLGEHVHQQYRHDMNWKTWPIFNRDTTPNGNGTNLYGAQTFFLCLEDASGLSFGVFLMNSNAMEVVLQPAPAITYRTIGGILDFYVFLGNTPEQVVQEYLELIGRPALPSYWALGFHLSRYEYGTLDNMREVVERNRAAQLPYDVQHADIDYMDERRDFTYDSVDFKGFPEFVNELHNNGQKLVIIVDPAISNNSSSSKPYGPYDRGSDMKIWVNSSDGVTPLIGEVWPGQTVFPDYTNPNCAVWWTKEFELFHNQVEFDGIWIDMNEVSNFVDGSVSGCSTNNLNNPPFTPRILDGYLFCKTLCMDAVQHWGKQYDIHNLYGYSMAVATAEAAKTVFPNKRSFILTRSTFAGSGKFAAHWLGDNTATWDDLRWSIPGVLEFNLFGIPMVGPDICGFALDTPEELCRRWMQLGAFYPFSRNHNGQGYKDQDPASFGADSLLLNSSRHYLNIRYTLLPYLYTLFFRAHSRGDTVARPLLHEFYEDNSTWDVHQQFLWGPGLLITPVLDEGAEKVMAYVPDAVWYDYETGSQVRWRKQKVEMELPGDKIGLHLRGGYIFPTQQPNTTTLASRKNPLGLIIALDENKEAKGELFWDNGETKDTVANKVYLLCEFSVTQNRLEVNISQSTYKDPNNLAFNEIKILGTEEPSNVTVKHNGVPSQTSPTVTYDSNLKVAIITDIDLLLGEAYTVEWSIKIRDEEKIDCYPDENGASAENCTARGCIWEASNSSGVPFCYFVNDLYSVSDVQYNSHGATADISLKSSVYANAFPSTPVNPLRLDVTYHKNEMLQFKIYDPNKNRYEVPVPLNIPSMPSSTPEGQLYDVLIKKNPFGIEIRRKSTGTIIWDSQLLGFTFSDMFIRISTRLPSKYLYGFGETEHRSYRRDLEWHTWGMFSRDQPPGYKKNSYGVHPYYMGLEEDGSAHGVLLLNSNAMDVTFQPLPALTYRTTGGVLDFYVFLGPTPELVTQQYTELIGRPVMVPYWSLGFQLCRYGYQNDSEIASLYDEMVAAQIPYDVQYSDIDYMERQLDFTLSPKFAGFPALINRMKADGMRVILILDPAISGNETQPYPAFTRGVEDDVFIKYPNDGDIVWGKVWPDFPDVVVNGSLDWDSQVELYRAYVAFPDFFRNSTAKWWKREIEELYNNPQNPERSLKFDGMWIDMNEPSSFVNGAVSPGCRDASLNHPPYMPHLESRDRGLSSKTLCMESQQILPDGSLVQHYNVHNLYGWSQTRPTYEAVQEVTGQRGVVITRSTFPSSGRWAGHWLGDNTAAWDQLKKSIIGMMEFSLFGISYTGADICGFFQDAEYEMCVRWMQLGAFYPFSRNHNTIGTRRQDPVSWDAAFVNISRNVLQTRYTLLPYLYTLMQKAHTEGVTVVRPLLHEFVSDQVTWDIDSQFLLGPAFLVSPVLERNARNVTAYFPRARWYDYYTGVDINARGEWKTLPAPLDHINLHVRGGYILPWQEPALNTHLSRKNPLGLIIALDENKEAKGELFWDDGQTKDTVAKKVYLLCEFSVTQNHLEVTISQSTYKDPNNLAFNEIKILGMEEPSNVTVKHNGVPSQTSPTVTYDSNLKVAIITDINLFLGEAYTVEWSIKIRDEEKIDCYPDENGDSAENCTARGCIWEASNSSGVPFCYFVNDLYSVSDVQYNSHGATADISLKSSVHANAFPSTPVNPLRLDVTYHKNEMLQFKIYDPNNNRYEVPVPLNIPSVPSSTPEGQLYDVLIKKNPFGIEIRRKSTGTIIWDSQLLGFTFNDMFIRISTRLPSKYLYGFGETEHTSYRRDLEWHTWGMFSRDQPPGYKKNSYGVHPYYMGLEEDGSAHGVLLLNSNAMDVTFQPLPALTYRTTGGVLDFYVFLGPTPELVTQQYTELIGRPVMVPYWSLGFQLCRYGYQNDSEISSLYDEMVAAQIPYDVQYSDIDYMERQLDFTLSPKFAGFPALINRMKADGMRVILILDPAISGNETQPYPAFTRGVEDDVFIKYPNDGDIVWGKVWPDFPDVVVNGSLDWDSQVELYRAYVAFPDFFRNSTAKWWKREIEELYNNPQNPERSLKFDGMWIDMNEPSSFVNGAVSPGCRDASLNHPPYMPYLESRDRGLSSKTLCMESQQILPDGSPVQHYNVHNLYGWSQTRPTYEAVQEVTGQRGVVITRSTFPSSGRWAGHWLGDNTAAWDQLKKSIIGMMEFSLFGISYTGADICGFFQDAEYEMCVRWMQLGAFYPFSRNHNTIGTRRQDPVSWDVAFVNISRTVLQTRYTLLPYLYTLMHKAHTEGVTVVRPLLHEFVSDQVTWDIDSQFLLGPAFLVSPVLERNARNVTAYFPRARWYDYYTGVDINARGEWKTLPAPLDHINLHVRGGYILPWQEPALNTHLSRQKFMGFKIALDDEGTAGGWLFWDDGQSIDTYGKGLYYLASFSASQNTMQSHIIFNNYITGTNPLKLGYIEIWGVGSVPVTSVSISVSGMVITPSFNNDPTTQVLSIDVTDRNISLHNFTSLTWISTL

Usually IC50 stands for the point on the concentration scale where inhibition reaches its midpoint. Higher therefore signals lower potency. `CC(C)=CCC/C(C)=C/Cc1c(O)cc(O)c(C(=O)/C=C/c2ccc(O)cc2)c1O` came in with an IC50 of 1080 nM. This counts as single-digit micromolar.
